Data reported in patent US10398785B2, “Pharmaceutical compositions containing taxane-cyclodextrin complexes, method of making and methods of use” (MERIDIAN LAB, priority 2015, dated 2019).

Test: Accelerated aging stability study at 40° C. for eleven days (impurities by HPLC, USP35)
Format: physicochemical
Details: in the liquid pharmaceutical composition throughout 11 days of accelerated aging at 40° C.
Protocol: A liquid pharmaceutical composition as described above, comprising ˜10 mg/mL docetaxel was diluted and subjected to accelerated aging at 40° C. for eleven days. The levels of impurities as specified by USP35 (United States Pharmacopeia 35) for taxane compositions were analyzed by HPLC at regular intervals. Stability was tested at 6 hours on day 0. Impurity levels in the liquid pharmaceutical compositions were compared to the allowable level according to the USP35 standard.

Compound `CC(=O)O[C@@]12CO[C@@H]1C[C@H](O)[C@@]1(C)C(=O)[C@H](O)C3=C(C)[C@@H](OC(=O)[C@H](O)[C@@H](NC(=O)OC(C)(C)C)c4ccccc4)C[C@@](O)([C@@H](OC(=O)c4ccccc4)[C@H]21)C3(C)C` [docetaxel] has a Concentration of docetaxel of 9520 µg/mL.
